The values below are quoted from earlier work in patent US20150038447A1, “ORGAN PROTECTION, PRESERVATION AND RECOVERY” (Hibernation Therapeutics, A KF LLC, priority 2007, published 2015).

One data set has as its system anaesthetised rats. Conditions: previous studies (Canyon and Dobson, 2004).
For data set [1] the following is noted: in vivo.
For data set [2] the following is noted: given orally and/or intravenous at 10, 25, 50, and 100 mg/kg body weight.
The next data set addresses T1, adenosine deaminase (Bos taurus, UniProt P56658).
T1 construct: from tissue; host or cells: calf intestinal mucosa
Conditions: calf intestinal mucosa; read-out: Ki (competitive inhibitor of adenosine deaminase).

For data set [3] the following is noted: 400 mg daily tablets.
In another data set the target is T2, NK(3) receptor (Homo sapiens, UniProt P29371).
T2 sequence (P29371 1-465): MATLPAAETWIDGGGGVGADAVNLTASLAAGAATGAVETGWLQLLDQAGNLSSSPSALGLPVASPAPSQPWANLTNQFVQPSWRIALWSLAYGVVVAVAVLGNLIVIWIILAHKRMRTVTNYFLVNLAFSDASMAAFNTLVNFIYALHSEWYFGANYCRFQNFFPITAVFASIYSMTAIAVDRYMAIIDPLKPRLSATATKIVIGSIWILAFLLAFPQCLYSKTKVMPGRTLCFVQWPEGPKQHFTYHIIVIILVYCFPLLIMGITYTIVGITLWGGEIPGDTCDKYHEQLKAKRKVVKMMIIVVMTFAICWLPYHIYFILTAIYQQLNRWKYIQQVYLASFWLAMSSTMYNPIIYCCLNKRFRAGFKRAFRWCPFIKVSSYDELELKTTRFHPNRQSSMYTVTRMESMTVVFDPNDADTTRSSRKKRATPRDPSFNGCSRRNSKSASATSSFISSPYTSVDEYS
Conditions: NK(1) versus NK(3).

The target of a further data set is human NK(1) receptor (Homo sapiens, UniProt P25103).
Chain of human NK(1) receptor (P25103 whole entry): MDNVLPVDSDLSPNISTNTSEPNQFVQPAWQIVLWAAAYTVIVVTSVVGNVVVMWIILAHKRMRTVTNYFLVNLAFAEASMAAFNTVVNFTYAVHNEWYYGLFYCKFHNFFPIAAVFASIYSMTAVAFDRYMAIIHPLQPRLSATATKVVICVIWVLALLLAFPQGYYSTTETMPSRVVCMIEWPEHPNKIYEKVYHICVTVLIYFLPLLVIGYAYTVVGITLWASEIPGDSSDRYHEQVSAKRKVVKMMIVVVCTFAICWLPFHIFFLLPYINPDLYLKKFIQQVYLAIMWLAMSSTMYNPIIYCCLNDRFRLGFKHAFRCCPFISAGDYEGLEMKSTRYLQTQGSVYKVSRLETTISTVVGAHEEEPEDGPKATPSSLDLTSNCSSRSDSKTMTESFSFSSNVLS
A further data set addresses T3, NK(2) receptor (Homo sapiens, UniProt P21452).
T3 sequence (P21452 1-398): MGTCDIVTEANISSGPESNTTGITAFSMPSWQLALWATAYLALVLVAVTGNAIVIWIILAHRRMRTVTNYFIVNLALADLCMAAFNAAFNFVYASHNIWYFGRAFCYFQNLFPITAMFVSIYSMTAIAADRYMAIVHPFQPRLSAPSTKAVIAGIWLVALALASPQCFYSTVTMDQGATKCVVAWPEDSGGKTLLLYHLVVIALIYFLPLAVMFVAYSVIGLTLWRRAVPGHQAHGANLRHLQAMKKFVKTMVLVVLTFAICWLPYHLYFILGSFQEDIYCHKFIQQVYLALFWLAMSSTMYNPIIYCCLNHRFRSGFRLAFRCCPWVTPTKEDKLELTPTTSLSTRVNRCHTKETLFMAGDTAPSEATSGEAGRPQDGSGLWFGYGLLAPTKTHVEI
Conditions: NK(1) versus NK(2).

T1 sequence (P56658 whole entry): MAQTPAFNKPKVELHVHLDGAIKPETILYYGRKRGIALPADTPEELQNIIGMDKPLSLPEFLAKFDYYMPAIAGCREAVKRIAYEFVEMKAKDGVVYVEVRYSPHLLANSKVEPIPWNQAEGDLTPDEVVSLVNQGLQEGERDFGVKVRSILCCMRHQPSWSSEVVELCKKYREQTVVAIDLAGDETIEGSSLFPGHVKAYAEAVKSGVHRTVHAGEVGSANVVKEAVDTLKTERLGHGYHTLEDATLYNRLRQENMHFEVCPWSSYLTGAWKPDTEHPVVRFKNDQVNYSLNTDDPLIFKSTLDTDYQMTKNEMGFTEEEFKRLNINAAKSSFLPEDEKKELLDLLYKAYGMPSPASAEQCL

Regarding `Nc1ncnc2c1ncn2[C@@H]1O[C@H](CO)[C@@H](O)[C@H]1O` [adenosine], the “half life in the blood” value was “about 10 seconds”. Moreover, the “animals that die during 30 min ischaemia from VF” value in the data set with anaesthetised rats is recorded as “about 50%”.
For `CSCC[C@@H]1NC(=O)[C@H](CC(C)C)NC(=O)[C@H](CCCNC(=N)N)NC(=O)[C@H](CO)NC(=O)[C@@H]2CSSC[C@@H]3NC(=O)[C@H](CO)NC(=O)CNC(=O)[C@H]([C@@H](C)O)NC(=O)[C@H](CSSC[C@H](N)C(=O)N[C@@H](CCCCN)C(=O)NCC(=O)N[C@@H](CCCCN)C(=O)NCC(=O)N[C@@H](C)C(=O)N[C@@H](CCCCN)C(=O)N2)NC(=O)[C@H](CSSC[C@@H](C(N)=O)NC(=O)[C@H](CCCCN)NC(=O)CNC(=O)[C@H](CO)NC(=O)[C@H](CCCNC(=N)N)NC3=O)NC(=O)[C@H](CC(=O)O)NC(=O)[C@H](Cc2ccc(O)cc2)NC1=O` [Omega conotoxin MVIIA], the “potency as an analgesic relative to morphine” value in data set [1] is 100-1000 fold.
For orientation: Ki means the equilibrium dissociation constant of an inhibitor or competing ligand from its target. Take `NC(=O)c1ncn([C@@H]2O[C@H](CO)[C@@H](O)[C@H]2O)c1N` [Acadesine, 5-amino-4-imidazole carboxamide ribonucleoside]: the safety in humans result in data set [2] is reported as “safe”. Besides, the inhibitory constant (Ki) on adenosine deaminase was 362 µM.
On to `OCCN(CCO)c1nc(N2CCCCC2)c2nc(N(CCO)CCO)nc(N3CCCCC3)c2n1` [Dipyridamole], for which, in data set [3], the plasma level entry is on record as “about 0.4 μg/ml” and the “plasma level (concentration)” value was ~800 nM.
As for `Cc1cccc(C)c1NC(=O)C[C@H]1CCN(C(=O)c2cc(C(F)(F)F)cc(C(F)(F)F)c2)[C@@H](Cc2ccccc2)C1.O=C(O)C[C@H](O)C(=O)O` (relative stereo) [R116301, (2R-trans)-4-[1-[3,5-bis(trifluoromethyl)benzoyl]-2-(phenylmethyl)-4-piperidinyl]-N-(2,6-dimethylphenyl)-1-acetamide (S)-Hydroxybutanedioate], the “selectivity toward NK(3) receptor” value on NK(3) receptor is “over 200 fold”. The inhibitory constant (Ki) at human NK(1) receptor was 0.00045 µM. For the same compound, the “selectivity toward NK(2) receptor” value on NK(2) receptor is “over 200 fold”.
